Source: paper PMC6511888, “Synthesis, Biological Evaluation, and Molecular Modeling Studies of New Thiadiazole Derivatives as Potent P2X7 Receptor Inhibitors” (Frontiers in Chemistry, 2019)

Experiments:
P2X3R = assay: α,β-meATP-induced [Ca2+]i shift; type: cell-based; settings: 100 μM
Protocol: (§1) Mouse peritoneal macrophages, PC12 cells, J774 cells, and HEPG2 cells were analyzed by fluorescence microscopy to measure the intracellular Ca^2+ concentrations ([Ca^2+]i). Cells were incubated with 2 μM Fura-2-AM (Molecular Probes) for 30 min, and the [Ca^2+]i mobilization was measured in the F340/F380 ratios with a FlexStation 3 multimode microplate reader (Molecular Devices). Cells were plated in translucent 96-well plates (BD Falcon) for 15 min and then washed and incubated in a saline solution with 150 NaCl, 5 KCl, 1 MgCl2, 1 CaCl2, and 10 HEPES (pH 7.4) for 30 min before measurements of [Ca^2+]i. The Ca^2+ influx was induced by stimulating cells with P2 receptor agonists. P2 receptor antagonists were added 10 min before P2 receptor agonist addition. […] Ionomycin was considered a positive control, and the other recordings were normalized in relation to the AUC.

ATP-induced paw edema = ATP-induced paw edema in mice; type: in vivo, mouse; settings: 9f 0.001–1 mg/kg intraperitoneally 1 h before ATP, edema measured after 30 min
Protocol: (§2) Our protocols using Swiss Webster mice 4–5 weeks old adhered to the Ethical Principles in Animal Experimentation adopted by the Brazilian College of Animal Experimentation and approved by the FIOCRUZ Research Ethics Committee (Faria et al., [2018]) (number LW-5814). Mouse paw edema was stimulated with carrageenan (300 μg/paw) saline suspension for 60 min or ATP (10 mg/paw) for 30 min. Treatment with diclofenac (100 μg/kg), oxidized ATP (100 μg/kg), and analog 9f (0.001–1 mg/kg) was intraperitoneally administered 60 min prior to the […] administration of carrageenan or ATP. A plethysmometer (UGO Basil, Italy) was used to measure the edema before inductor injection, and the relative paw edema increased after carrageenan or ATP action.

P2X7R = molecular target: T1, P2X7R (Mus musculus, UniProt Q9Z1M0); assay: Whole-cell patch clamp, ATP-induced ionic currents in peritoneal macrophages; type: cell-based; settings: fixed 500 nM 9f; ATP 100 μM to 25 mM; whole-cell configuration
T1 construct: plated for 24 h before dye uptake assays, whole-cell patch clamp experiments, and IL-1β release assays; endogenous in cells; host or cells: mouse (Swiss Webster) peritoneal macrophages
T1 sequence (Q9Z1M0 1-595): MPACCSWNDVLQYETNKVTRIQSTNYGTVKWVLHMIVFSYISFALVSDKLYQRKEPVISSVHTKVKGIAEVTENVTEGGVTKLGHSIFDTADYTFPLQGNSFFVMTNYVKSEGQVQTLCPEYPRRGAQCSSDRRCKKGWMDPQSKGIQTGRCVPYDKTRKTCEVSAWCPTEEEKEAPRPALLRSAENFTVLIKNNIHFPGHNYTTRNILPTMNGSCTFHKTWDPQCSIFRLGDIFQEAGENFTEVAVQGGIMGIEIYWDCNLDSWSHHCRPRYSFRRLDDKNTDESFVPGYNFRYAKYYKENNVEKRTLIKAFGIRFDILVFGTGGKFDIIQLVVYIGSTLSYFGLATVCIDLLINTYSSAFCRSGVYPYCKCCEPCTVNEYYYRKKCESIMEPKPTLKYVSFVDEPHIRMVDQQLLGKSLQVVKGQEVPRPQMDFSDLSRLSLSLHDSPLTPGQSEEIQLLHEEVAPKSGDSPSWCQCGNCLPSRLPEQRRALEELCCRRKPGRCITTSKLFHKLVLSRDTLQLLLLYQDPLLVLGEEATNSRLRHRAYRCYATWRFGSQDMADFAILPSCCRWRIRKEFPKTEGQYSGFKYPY
Protocol: The whole-cell configuration was used in peritoneal macrophages as previously described (Faria et al., [2005]). All the experiments used bath and pipette solutions with a series resistance set as 6–11 MΩ. Ionic currents with amplitudes < 1,500 pA were not compensated; however, ionic currents above this level were compensated by 88%. The cell capacitance for peritoneal macrophages was (19 ± 1 pF; n = 86), and the recordings were obtained at a holding potential of −60 mV at 37°C.
The saline composition was as follows (in mM): 150 NaCl, 5 KCl, 1 MgCl2, 1 CaCl2, and 10 HEPES (pH 7.4) for the bath solution and 150 KCl, 5 NaCl, 1 MgCl2, 10 HEPES, and 0.1 EGTA (pH 7.4) for the pipette solution (Faria et al., [2018]).
[…] A perfusion chamber (RC-24 chamber, Warner Instrument Corp) operating at a rate of 1 ml/min was used in all experiments (Faria et al., [2018]).

[1] = test system: carrageenan-induced paw edema; assay: Carrageenan-induced paw edema in mice; type: in vivo, mouse; settings: 9f 0.001–1 mg/kg intraperitoneally 1 h before carrageenan, edema measured after 60 min
Protocol: as §2

P2X1R = molecular target: T2, P2X1R (Mus musculus, UniProt P51576); assay: β,γ-meATP-induced intracellular Ca2+ mobilization in J774 cells; type: cell-based; settings: 100 μM
T2 construct: endogenous in cells; host or cells: J774 cells
T2 sequence (P51576 1-399): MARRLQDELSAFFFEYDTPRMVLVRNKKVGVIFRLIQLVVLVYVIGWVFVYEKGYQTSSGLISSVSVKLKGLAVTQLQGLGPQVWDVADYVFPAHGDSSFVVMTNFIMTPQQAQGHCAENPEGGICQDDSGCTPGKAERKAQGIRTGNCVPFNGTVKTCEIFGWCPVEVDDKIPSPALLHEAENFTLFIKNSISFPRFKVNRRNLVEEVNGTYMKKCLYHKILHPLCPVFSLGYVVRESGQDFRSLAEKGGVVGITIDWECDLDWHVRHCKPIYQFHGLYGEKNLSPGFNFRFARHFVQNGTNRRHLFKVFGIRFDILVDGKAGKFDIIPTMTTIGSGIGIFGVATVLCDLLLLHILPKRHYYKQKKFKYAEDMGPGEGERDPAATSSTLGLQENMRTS
Protocol: as §1

For `CCOC(=O)c1cnn(-c2nnc(-c3ccccc3Cl)s2)c1N` [Compound 9f], the “Effect on activity of P2X3R agonist α,β-meATP” value (P2X3R) was “did not reduce”, the ATP-induced paw edema (ATP-induced paw edema) was “dose-dependently decreased” and the “EC50 of the ATP dose–response curve with fixed inhibitor vs ATP alone” value (P2X7R) was “higher”. The Carrageenan-induced paw edema [1] was “dose-dependently decreased” and the “Effect on β,γ-meATP-induced intracellular Ca2+ mobilization” value (P2X1R) was “did not reduce”.
